This assay concerns the target Acetylcholinesterase (Electrophorus electricus, UniProt O42275). The experiment in a line: Inhibition of electric eel AChE by Ellman's method. Background: DTNB colorimetry detects thiols as they appear.
Chain of Acetylcholinesterase (O42275 whole entry): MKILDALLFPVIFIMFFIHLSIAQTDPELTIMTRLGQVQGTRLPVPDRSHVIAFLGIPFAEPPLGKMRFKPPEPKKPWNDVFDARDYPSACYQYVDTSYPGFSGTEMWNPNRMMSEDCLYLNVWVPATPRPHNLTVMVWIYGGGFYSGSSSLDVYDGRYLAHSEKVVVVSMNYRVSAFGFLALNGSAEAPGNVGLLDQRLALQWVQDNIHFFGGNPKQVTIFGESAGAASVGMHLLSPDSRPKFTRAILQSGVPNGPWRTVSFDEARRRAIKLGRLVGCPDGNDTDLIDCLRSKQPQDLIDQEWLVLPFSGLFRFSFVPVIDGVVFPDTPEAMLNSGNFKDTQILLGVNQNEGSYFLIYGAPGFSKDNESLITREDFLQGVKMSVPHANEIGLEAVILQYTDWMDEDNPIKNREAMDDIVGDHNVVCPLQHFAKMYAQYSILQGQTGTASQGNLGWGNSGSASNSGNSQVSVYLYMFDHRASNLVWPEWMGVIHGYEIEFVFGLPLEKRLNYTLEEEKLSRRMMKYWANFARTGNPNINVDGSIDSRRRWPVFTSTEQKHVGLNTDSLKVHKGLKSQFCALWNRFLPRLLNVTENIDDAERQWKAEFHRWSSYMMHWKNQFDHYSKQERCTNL
Compound `COc1cc(-c2cc3c(c(=O)o2)C[C@]2(O)[C@@]4(C)C(=O)C=C[C@@](C)(CO)[C@]4(O)CC[C@@]2(C)O3)cc(OC)c1OC` [4ALPHA-(HYDROXYMETHYL)-4ALPHA-DEMETHYLTERRITREM B] displayed an IC50 of 0.423 nM.

`C=CC[N+](C)(C)c1ccc(CCC(=O)CCc2ccc([N+](C)(C)CC=C)cc2)cc1` gave an IC50 of 10 nM.

Compound `COc1cc(-c2cc3c(c(=O)o2)C[C@]2(O)[C@@]4(C)C(=O)C=C[C@](C)(CO)[C@]4(O)CC[C@@]2(C)O3)cc(OC)c1OC` yielded an IC50 of 790 nM.

Usually IC50 stands for the concentration at which inhibition is half-maximal. A high value points to weaker potency in that assay.

The record behind these values is ChEMBL document CHEMBL1146438, “Structure and anti-acetylcholinesterase activity of 4 alpha-(hydroxymethyl)-4 alpha-demethylterritrem B” (J Nat Prod, 1997).
